From patent US8039668B2, “Naphthalene-based inhibitors of anti-apoptotic proteins” (Burnham Institute for Medical Research, priority 2008, dated 2011)
Where two headings read alike, the source gives them in different places.

Tests used:
[1] = molecular target: T1, BCL-XL (Homo sapiens, UniProt Q07817); assay: 1D 1H-NMR binding assay; parameters: key to 1D-^1H NMR: +++, Very Active; ++, Active; +, Mild; −, Weak; conditions: for 1D ^1H-NMR Binding Assay (BCL-XL): Table 9; for 1D-^1H NMR: BCL-XL 25 μM, compound 200 μM
Procedure: By observing the aliphatic region of the spectra, binding could be readily detected due to chemical shift changes in active site methyl groups of Ile, Leu, Thr, Val or Ala (region between −0.8 and 0.3 ppm). All experiments were performed with a 600 MHz spectrometer Bruker Avance 600 equipped with four rf channels and z-axis pulse-field gradients.
Target sequence in this assay (Q07817 whole entry): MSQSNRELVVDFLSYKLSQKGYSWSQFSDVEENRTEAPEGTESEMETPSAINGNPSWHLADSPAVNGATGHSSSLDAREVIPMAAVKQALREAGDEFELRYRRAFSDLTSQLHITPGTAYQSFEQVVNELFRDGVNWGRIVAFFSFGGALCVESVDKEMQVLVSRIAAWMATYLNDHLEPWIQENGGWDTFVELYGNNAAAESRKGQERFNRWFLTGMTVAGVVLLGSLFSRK

[2] = tested on: H1299 cell line; assay: Cell viability, ATP-LITE assay; type: cell-based, human; conditions: Homo sapiens
Method in brief: (§1)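 Human cancer lines were seeded at 2000 (H460, H1299), 3000 (PC3) or 10,000 (RS11846) cells/well in F12 or RPMI1640 with 5% FBS. Compounds were added in 0.1% DMSO 24 h after seeding. Viability was read by ATP-LITE luminescence after 72 h and normalized to DMSO controls.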

[3] = tested on: PC3ML cells; assay: Cell viability, ATP-LITE assay; type: cell-based, human; conditions: for EC50: Homo sapiens, PC3-ML
Method in brief: as §1

[4] = tested on: H460 human lung cell line; assay: Cell viability, ATP-LITE assay; type: cell-based; conditions: for EC50: Homo sapiens
Method in brief: as §1

[5] = tested on: RS11846 cell line; assay: Cell viability, ATP-LITE assay; type: cell-based; conditions: Homo sapiens, Table 9; read-out: RS11846 EC50 (ATP-LITE assay)
Method in brief: as §1

[6] = tested on: human lymphoma RS11846 cell line; assay: Apoptosis, Annexin V-FITC and propidium iodide assay; type: cell-based; conditions: Homo sapiens
Procedure: The apoptotic activity of the compounds against RS11846 cells was assessed by staining with Annexin V- and propidium iodide (PI). Lymphoma cell line, RS11846, was cultured in RPMI 1640 medium (Mediatech Inc., Herndon, Va. 20171) containing 10% fetal bovine serum (Mediatech Inc., Herndon, Va. 20171) and Penicillin/Streptomycin (Mediatech Inc., Herndon, Va. 20171). […] The percentage of viable cells was determined by FITC-Annexin V- and propidium iodide (PI)-labeling, using an Apoptosis Detection kit (BioVision Inc.), and analyzing stained cells by flow cytometry (FACSort; Bectin-Dickinson, Inc.; Mountain View, Calif.). Cells that were annexin-V-negative and PI-negative were considered viable.

[7] = PAMPA cell membrane permeability; type: in vitro ADME; conditions: Table 11; Low/Medium, not defined
From the text: PAMPA is parallel artificial membrane permeation assay.

[8] = molecular target: T1, BCL-XL; assay: Competitive fluorescence polarization assay (FPA), Bak BH3 peptide; type: binding; parameters: 100 nM GST-BCL-XL ΔTM protein
Procedure: For competitive binding assays, 100 nM GST-BCL-XL ΔTM protein was preincubated with the tested compound at varying concentrations in 47.5 μL PBS (pH=7.4) in 96-well black plates at room temperature for 10 min, then 2.5 μL of 100 nM FITC-labeled Bak BH3 peptide was added to produce a final volume of 50 μL. The wild-type and mutant Bak BH3 peptides were included in each assay plate as positive and negative controls, respectively. […] IC50 was determined by fitting the experimental data to a sigmoidal dose-response nonlinear regression model (SigmaPlot 10.0.1, Systat Software, Inc., San Jose, Calif., USA). Data reported are mean of three independent experiments±standard error (SE). […] Fluorescence polarization was measured after 10 min.
Target sequence in this assay (Q07817 1-209 limits assumed): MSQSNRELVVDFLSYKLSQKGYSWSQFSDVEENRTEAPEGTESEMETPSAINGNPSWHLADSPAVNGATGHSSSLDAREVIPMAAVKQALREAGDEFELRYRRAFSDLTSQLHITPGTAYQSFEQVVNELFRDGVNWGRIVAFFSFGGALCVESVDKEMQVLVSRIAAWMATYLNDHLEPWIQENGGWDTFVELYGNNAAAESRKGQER

[9] = molecular target: Bcl-2 (Homo sapiens, UniProt P10415); assay: Competitive fluorescence polarization assay (FPA), Bim BH3 peptide; type: binding
Bcl-2, sequence (P10415 whole entry): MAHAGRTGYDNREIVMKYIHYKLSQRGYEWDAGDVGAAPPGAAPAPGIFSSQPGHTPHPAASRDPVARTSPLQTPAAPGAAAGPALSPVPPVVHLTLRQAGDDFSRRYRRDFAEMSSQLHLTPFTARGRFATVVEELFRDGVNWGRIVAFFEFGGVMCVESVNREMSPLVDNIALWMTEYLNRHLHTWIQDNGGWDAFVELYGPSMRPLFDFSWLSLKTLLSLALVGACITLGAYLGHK

[10] = molecular target: Mcl-1 (Homo sapiens, UniProt Q07820); assay: as above; type: binding
Mcl-1, sequence (Q07820 whole entry): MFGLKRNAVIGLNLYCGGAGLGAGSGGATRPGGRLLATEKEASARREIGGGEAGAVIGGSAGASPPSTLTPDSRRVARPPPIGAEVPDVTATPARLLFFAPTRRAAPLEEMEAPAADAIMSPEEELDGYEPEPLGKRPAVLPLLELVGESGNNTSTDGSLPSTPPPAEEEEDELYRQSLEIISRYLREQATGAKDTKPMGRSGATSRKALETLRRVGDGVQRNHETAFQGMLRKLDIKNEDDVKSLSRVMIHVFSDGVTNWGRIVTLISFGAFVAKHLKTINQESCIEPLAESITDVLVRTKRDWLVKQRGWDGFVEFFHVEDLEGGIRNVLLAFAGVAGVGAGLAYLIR

[11] = molecular target: T2, Bfl-1 (Homo sapiens, UniProt Q16548); assay: Competitive fluorescence polarization assay (FPA); type: binding
T2 sequence (Q16548 1-175): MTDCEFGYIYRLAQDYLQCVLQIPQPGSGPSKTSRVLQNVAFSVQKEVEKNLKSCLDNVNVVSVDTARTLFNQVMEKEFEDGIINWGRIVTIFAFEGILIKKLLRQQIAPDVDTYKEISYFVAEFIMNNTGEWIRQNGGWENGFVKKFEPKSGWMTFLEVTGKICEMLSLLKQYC

[12] = molecular target: T1, BCL-XL; assay: Isothermal titration calorimetry (ITC); type: binding
Procedure: Titrations were performed using a VP-ITC or ITC200 calorimeter from Microcal (Northampton, Mass.). BCL-XL was used at concentrations between 25 and 100 μM in 20 mM sodium phosphate buffer (pH 7.4) and 5-10% DMSO. Titrants were used at concentrations 10-15 fold of that of the protein in the same buffer. Titrations were carried out at 25° C. Data were analyzed using Microcal Origin software provided by the ITC manufacturer (Microcal, Northampton, Mass.).
Target sequence in this assay (Q07817 whole entry): as the sequence (Q07817 whole entry) above

[13] = tested on: BP3 human B-cell lymphoma cell line; assay: Annexin V-FITC and propidium iodide assay; type: cell-based; conditions: Homo sapiens, B-cell, read-out: EC50 BP3
[14] = tested on: Bax/Bak double knockout mouse embryonic fibroblast cells (MEF/DKO); assay: FITC-Annexin V/PI cytotoxicity in Bax/Bak double knockout cells; type: cell-based; conditions: 10 μM
Procedure: MEF/WT and MEF/DKO cells were seeded in 24-well plate at a seeding density of half a million per well (in 1 ml of DMEM medium supplemented by 10% FCS). […] On the following day, floating cells were pooled with adherent cells harvested after brief incubation with 0.25% Trypsin/EDTA solution (Gibco/In-Vitrogen Inc.). Cells were centrifuged and supernatant was discarded, and cell pellet was re-suspended with 0.2 ml of Annexin-V binding buffer, followed by addition of 1 μl Annexin-FITC and 1 μl PI (propidium iodide). The percentage of viable cells was determined by a 3-color FACSort instrument and data analyzed by Flow-Jo program, scoring Annexin V-negative, PI-negative as viable cells.

[15] = Plasma stability; type: in vitro ADME, rat; conditions: for Plasma stability (T = 1 h): Table 6, rat plasma
Procedure: Plasma Stability. A 20 μL aliquot of a 10 mM solution in DMSO of the test compound was added to 2.0 mL of heparinized rat plasma (Lampire, P1-150N) to obtain a 100 μM final solution. The mixture was incubated for 1 h at 37.5° C. Aliquots of 100 μL were taken (0, 30 min, 1 h) and diluted with 200 μL of MeOH containing internal standard.

[16] = Liver microsomal stability; type: in vitro ADME, rat; conditions: for Microsomal Stability (T = 1 h): Table 6, rat liver microsomes
From the text: Liver Microsomal Stability.

[17] = tested on: B6Bcl-2 transgenic mice; conditions: for Tox: Bcl-2 transgenic mouse, single ip injection 72 μmol/kg
Procedure: Transgenic mice expressing BCL-2 have been described as the B6 line. The BCL-2 transgene res a minigene version of a t(14;18) translocation in which the human BCL-2 gene is fused with the immunoglobulin heavy-chain (IgH) locus and associated IgH enhancer. The transgene was propagated on the Balb/c background.
After 24 hours, B6BCL2 mice were sacrificed by intraperitoneal injection of lethal dose of Avertin. Spleen was removed and weighed. […] Spleen tissue was fixed in z-FIX for 3 days and rinsed in PBS, and saved for histological analysis of spleen (H&E staining and TUNEL assay).

[18] = NCI-H1299, Table 9, read-out: H1299 EC50
[19] = NCI-H460, Table 9, read-out: H460 EC50
[20] = Table 9, read-out: RS11846 EC50 (Annexin V- and propidium iodide assay)
[21] = Table 9, read-out: FPA IC50 (BCL-XL)
[22] = NCI-H1299, heading: EC50 H1299, Table 3, ATP-LITE assay, read-out: EC50 H1299
[23] = Table 3, ATP-LITE assay, heading: EC50 PC3ML, read-out: EC50 PC3ML
[24] = NCI-H460, Table 3, ATP-LITE assay, read-out: EC50 H460
[25] = Table 3, Annexin V-FITC and propidium iodide assay, heading: EC50 RS11846, read-out: EC50 RS11846

Structure (SMILES)	1D ^1H-NMR Binding Assay (BCL-XL) [1]	EC50 [2, 18]	EC50 ([3]; Table 9, read-out: PC3ML EC50)	EC50 [4, 19]	EC50 [5]	EC50 [6, 20]	Cell Permeability [7]	IC50 [8, 21]	IC50 [9]	IC50 [10]	IC50 [11]	Kd [12]	MEF/DKO cells killed [14]	Plasma stability (T = 1 h) [15]	Microsomal Stability (T = 1 h) [16]	Tox [17]	IC50 ([8]; read-out: IC50 FPA Bcl-XL)	further results
Cc1cc2c(C(=O)c3nc4ccccc4s3)c(O)c(O)cc2c(O)c1-c1c(C)cc2c(C(=O)c3nc4ccccc4s3)c(O)c(O)cc2c1O [Compound XVII, (1,1′,6,6′,7,7′-hexahydroxy-3,3′-dimethyl-2,2′-binaphthyl-5,5′-diyl)bis(benzo[d]thiazol-2-ylmethanone)]	+	5800 nM	5200 nM	1400 nM	2900 nM	7000 nM	Medium	140 to 450 nM	–	–	–	–	–	–	–	–	–	–
Cc1cc2c(C(=O)c3cccc4ccccc34)c(O)c(O)cc2c(O)c1-c1c(C)cc2c(C(=O)c3cccc4ccccc34)c(O)c(O)cc2c1O [Compound VIII, (1,1′,6,6′,7,7′-hexahydroxy-3,3′-dimethyl-2,2′-binaphthyl-5,5′-diyl)bis(naphthalen-1-ylmethanone)]	+	2400 nM	3000 nM	590 nM	1800 nM	3000 to 5500 nM	Low	160 nM	–	–	–	–	–	–	–	–	–	–
Cc1cc2c(C(=O)C(C)(C)C)c(O)c(O)cc2c(O)c1-c1c(C)cc2c(C(=O)C(C)(C)C)c(O)c(O)cc2c1O [Compound XVIII, 1,1′-(1,1′,6,6′,7,7′-hexahydroxy-3,3′-dimethyl-2,2′-binaphthyl-5,5′-diyl)bis(2,2-dimethylpropan-1-one)]	++	–	–	–	–	–	Medium	–	–	–	–	–	–	–	–	–	–	EC50 ([6]; read-out: RS11846 EC50 (Annexin V- and propidium iodide assay), Table 9): 14700 nM
Cc1cc2c(C(=O)NC(C)c3ccc(Cl)cc3)c(O)c(O)cc2c(O)c1-c1c(C)cc2c(C(=O)NC(C)c3ccc(Cl)cc3)c(O)c(O)cc2c1O (centres unmarked) [Compound 8k, N^5,N^5′-bis(1-(4-chlorophenyl)ethyl)-1,1′,6,6′,7,7′-hexahydroxy-3,3′-dimethyl-2,2′-binaphthyl-5,5′-dicarboxamide]	–	–	–	–	–	–	–	–	490 nM	230 nM	400 nM	110 nM	20-35%	94%	71%	4+	270 nM	1D-^1H NMR ([1]; Table 3): +++; EC50 [2, 22]: 3200 nM; EC50 [3, 23]: 5000 nM; EC50 [4, 24]: 500 nM; EC50 [6, 25]: 5500 nM; EC50 ([13]; heading: EC50 BP3, Table 3, Annexin V-FITC and propidium iodide assay): 1500 nM; percentage of maximum reduction in spleen weight (maximal biological activity) ([17]; single ip 72 μmol/kg, maximum shrinkage no more than 50%): 85-95%; spleen weight reduction ([17]; single mouse, single ip 72 μmol/kg): more than 40%
Cc1cc2c(CCc3ccccc3)c(O)c(O)cc2c(O)c1-c1c(C)cc2c(CCc3ccccc3)c(O)c(O)cc2c1O [Compound 12e, 3,3′-dimethyl-5,5′-diphenethyl-2,2′-binaphthyl-1,1′,6,6′,7,7′-hexaol]	–	–	–	–	–	–	–	–	480 nM	830 nM	5000 nM	410 nM	20-35%	80%	89%	0	3500 nM	1D-^1H NMR ([1]; Table 4): +; EC50 ([2]; NCI-H1299, read-out: EC50 H1299): 580 nM; EC50 ([3]; read-out: EC50 PC3ML, ATP-LITE assay): 2400 nM; EC50 ([4]; NCI-H460, read-out: EC50 H460): 920 nM; EC50 ([6]; read-out: EC50 RS11846, Annexin V-FITC and propidium iodide assay): 9800 nM; EC50 [13]: 4140 nM; signs of toxicity ([17]; 72 μmol/kg and even 120 μmol/kg): no significant signs of toxicity
Cc1cc2c(C(=O)Cc3ccccc3)c(O)c(O)cc2c(O)c1-c1c(C)cc2c(C(=O)Cc3ccccc3)c(O)c(O)cc2c1O [Compound I, 1,1′-(1,1′,6,6′,7,7′-hexahydroxy-3,3′-dimethyl-2,2′-binaphthyl-5,5′-diyl)bis(2-phenylethanone)]	+++	3500 nM	–	680 nM	2600 nM	3000 to 5500 nM	Medium	190 nM	–	–	–	–	–	–	–	–	–	times/fold more potent than Apogossypol, FP Bcl-2 ([9]; vs Apogossypol): approximately 8; times/fold more potent than Apogossypol, FP Mcl-1 ([10]; vs Apogossypol): ~5; times more potent than Apogossypol, ITC Bcl-XL ([12]; vs Apogossypol): 10; fold more potent than Apogossypol, PC3ML ([3]; vs Apogossypol): 2-5; times more potent than Apogossypol, H460 ([4]; vs Apogossypol): 4-5; reduction of spleen weight ([17]; groups of six mice, compound I): ~40%; reduction in spleen weight ([17]; single BCL-2 transgenic mouse, 60 μmmol/kg): 40%; times more effective than Apogossypol, FP Bcl-XL ([8]; vs Apogossypol): ~20
Cc1cc2c(C(=O)NCC3CCCCC3)c(O)c(O)cc2c(O)c1-c1c(C)cc2c(C(=O)NCC3CCCCC3)c(O)c(O)cc2c1O [Compound 8m, N^5,N^5′-bis(cyclohexylmethyl)-1,1′,6,6′,7,7′-hexahydroxy-3,3′-dimethyl-2,2′-binaphthyl-5,5′-dicarboxamide]	–	–	–	–	–	–	–	–	710 nM	780 nM	2000 nM	850 nM	20-35%	89%	90%	4+	1100 nM	1D-^1H NMR ([1]; Table 3): +++; EC50 [2, 22]: 4800 nM; EC50 [3, 23]: 3700 nM; EC50 [4, 24]: 410 nM; EC50 [6, 25]: 4900 nM; EC50 ([13]; Table 3, Annexin V-FITC and propidium iodide assay): 900 nM; degraded after 1 hour incubation in rat plasma ([15]; 1 hour): 11%; degraded after 1 hour incubation in rat microsomal preparations ([16]; 1 hour): 10%
Cc1cc2c(C(=O)C3CCCC3)c(O)c(O)cc2c(O)c1-c1c(C)cc2c(C(=O)C3CCCC3)c(O)c(O)cc2c1O [Compound VI, (1,1′,6,6′,7,7′-hexahydroxy-3,3′-dimethyl-2,2′-binaphthyl-5,5′-diyl)bis(cyclopentylmethanone)]	+	3100 nM	3400 nM	1100 nM	4000 nM	4500 nM	Low	450 nM	–	–	–	–	–	–	–	–	–	–
